Source: patent US12208105B2, “Methods for attenuating graft-versus-host disease and opportunistic infections” (priority 2018, dated 2025)
Read-outs that look alike come from different tables or passages of the source.

Assays:
CCR7 [1] = molecular target: T1, CCR7 (Homo sapiens, UniProt P32248); test: HTS primary reporter assay, human CCR7; assay type: cell-based
T1 sequence (P32248 25-378): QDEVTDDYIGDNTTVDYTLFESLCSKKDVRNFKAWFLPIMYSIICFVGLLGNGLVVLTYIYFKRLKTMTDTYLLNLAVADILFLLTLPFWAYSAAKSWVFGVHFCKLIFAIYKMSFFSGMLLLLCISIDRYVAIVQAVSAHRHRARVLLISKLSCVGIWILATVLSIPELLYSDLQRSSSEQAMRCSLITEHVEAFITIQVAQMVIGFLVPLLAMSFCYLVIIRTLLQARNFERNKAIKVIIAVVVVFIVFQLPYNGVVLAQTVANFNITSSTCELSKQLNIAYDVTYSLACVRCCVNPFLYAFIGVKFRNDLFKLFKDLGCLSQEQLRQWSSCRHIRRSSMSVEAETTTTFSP

Murine CCR7 = molecular target: T2, Murine CCR7 (Mus musculus, UniProt P47774); test: HTS primary reporter assay, murine CCR7; assay type: cell-based
T2 sequence (P47774 25-378): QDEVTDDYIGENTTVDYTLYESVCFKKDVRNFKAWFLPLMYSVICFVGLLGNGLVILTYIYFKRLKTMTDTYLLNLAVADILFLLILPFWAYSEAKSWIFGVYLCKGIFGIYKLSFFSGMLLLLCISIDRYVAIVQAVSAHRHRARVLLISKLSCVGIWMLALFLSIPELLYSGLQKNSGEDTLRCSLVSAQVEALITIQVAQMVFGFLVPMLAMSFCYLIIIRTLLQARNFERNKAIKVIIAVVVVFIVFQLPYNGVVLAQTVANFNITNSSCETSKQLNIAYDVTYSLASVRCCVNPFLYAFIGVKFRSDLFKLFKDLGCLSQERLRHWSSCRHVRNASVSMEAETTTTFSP

B6 into B6D2 aGVHD model = test: aGVHD, B6 into B6D2 transplant, cosalane dosed systemically; assay type: in vivo, mouse
Protocol: Transplantation Procedures: Recipient mice were irradiated on transplant day −1. Recipients were then administered T cell depleted (TCD) bone marrow cells +/−CD25^− column-purified conventional T cells (Tcons) to induce aGVHD as previously described (Wysocki et al., J. Immunol. 173:845 (2004); Carlson et al., Blood 113:1365 (2009)). Tcons consisted of CD4^+ and CD8^+ T cells in a 1:1 ratio. For ex-vivo cosalane incubations, cell populations were suspended in serum/protein free injectable saline unless otherwise indicated. […] The cells were then administered immediately to recipients by tail vein injection.

[2] = test system: B6 into BALB/c aGVHD model; test: aGVHD, B6 into BALB/c MHC mismatched allograft, Tcons incubated ex vivo; assay type: in vivo, mouse
[3] = test system: human PBMC into NSG xenogeneic aGVHD system; test: Xenogeneic aGVHD, human PBMC into NSG mice, cells incubated ex vivo; assay type: in vivo, mouse; parameters: survival times: dose or concentration left out as unconfirmed
donor Tcon accumulation = test: Organ eGFP quantification (donor Tcon accumulation, anti-eGFP ELISA); assay type: in vivo, mouse
[4] = test system: murine cytomegalovirus (mCMV); test: Murine cytomegalovirus plaque assay on 3T3 fibroblasts; assay type: cell-based
Epstein Barr virus (EBV) = assay type: cell-based, human
CCR7 [5] = molecular target: T1, CCR7; settings: cited from earlier work
[6] = cited from earlier work
serum albumin = serum albumin (Homo sapiens, UniProt P02768); settings: cited from earlier work
serum albumin, sequence (P02768 25-609): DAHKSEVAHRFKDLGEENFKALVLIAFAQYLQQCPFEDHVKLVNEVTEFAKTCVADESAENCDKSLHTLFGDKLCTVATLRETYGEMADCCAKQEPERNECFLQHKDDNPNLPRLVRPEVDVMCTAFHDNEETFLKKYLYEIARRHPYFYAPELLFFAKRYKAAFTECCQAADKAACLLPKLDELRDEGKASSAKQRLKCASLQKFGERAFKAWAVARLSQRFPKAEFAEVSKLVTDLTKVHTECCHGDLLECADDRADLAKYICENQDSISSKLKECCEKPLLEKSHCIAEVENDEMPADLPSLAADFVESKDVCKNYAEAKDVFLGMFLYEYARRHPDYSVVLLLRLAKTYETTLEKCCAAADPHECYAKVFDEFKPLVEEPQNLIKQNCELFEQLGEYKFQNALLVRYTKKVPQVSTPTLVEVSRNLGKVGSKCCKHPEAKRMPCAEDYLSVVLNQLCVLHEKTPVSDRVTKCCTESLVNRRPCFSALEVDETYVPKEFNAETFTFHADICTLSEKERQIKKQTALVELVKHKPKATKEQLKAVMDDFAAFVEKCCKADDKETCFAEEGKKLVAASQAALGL

[7] = test system: herpes simplex 1 and 2 and human cytomegalovirus; settings: cited from earlier work
[8] = in vitro, previous reports; cited from earlier work
B6 Tcons = test: Tcon proliferation assay
Protocol: (A) B6 Tcons were purified and incubated with increasing concentrations of cosalane or equal volumes of DMSO vehicle in normal saline for one hour at 37° C. The cells were then washed and cultured on 24 well plates pre-coated with anti-CD3 and anti-CD28 antibody in the presence of supplemental IL-2 for 72 hours. The number of cells per well were then quantified.
Tcon proliferation assay: Purified CD25^− B6 Tcons were incubated with cosalane at the indicated concentrations or an equal volume of DMSO vehicle for one hour at 37° C. The cells were then washed and cultured on 24-well plates previously incubated overnight with anti-CD3 and anti-CD28 antibody at 10 μg/ml. The cells were cultured for 72 hours in complete media supplemented with murine interleukin-2 at 100 IUs/ml and then counted using a hemacytometer.
Purified B6 Tcons were isolated as before and incubated with cosalane at increasing concentrations ranging from 10 μg/ml (13 μM—the concentration used for the B6 into B6D2 survival experiment described in FIGS. 3D and 3E) to 30 μg/ml (39 μM) or an equal volume of DMSO diluted in normal saline. The cells were then washed, placed on 24 well plates pre-coated with anti-CD3 and anti-CD28 immunoglobulin, and cultured for 72 hours in media containing supplemental IL-2.

TNF and IFN-γ = test: Organ inflammatory cytokines by ELISA after HSCT; settings: day +14
Protocol: (A, B) B6D2 mice were lethally irradiated on transplant day −1. On day 0 recipients were administered 3×10^6 TCD B6 BM cells +/−4×10^6 B6 Tcons. Donor TCD BM cells, donor Tcons, both cell populations, or neither were incubated ex vivo with cosalane at 15 μg/ml for one hour prior to transplant. Those cells not treated with cosalane were incubated with an equal volume of DMSO vehicle. Mice were then followed for survival and scored for aGVHD. N=2 BM only. N=5 for all other treatment groups. […] (C, D) B6D2 mice were lethally irradiated on transplant day −1. On day 0 recipients were administered 3×10^6 TCD eGFP^− B6 BM cells plus 4×10^6 eGFP^+ B6 Tcons. Donor Tcons were incubated ex vivo with DMSO vehicle or cosalane diluted in normal saline at 15 μg/ml. The cells were then mixed with untreated TCD B6 BM cells and administered immediately to recipient mice by tail vein injection. Recipient mice were subsequently killed on day +7 (C) or day +14 (D). Lymphoid organs (left panels) and aGVHD target organs (right panels) were subsequently harvested and homogenized. Total eGFP levels were then determined using an anti-eGFP ELISA. N=7 per treatment group. […] (E, F) B6D2 mice were transplanted as in (C, D) and their organs removed and homogenized on day +7 (E) or day +14 (F). Total IFN-y (left panels) and TNF (right panels) was then determined by ELISA. N=7 per treatment group.

[9] = test system: P815 murine mastocytoma cells; test: P815 graft-versus-leukemia model with in vivo imaging
Protocol: B6D2 mice were lethally irradiated on transplant day −1. On day 0 recipients were administered 3×10^6 TCD B6 BM cells and 2.5×10^4 luciferase^+ P815 murine mastocytoma cells (H-2^d)+/−4×10^6 B6 Tcons. Donor Tcons were incubated ex vivo with DMSO vehicle or cosalane diluted in normal saline at 15 μg/ml. The cells were then mixed with untreated BM/tumor cells and administered immediately to recipient mice by tail vein injection. Mice were then serially imaged twice weekly following the intraperitoneal injection of luciferin. […] Recipient mortality was attributed to tumor versus aGVHD based on the tumor burden by imaging and clinical aGVHD scores at the time of death. Exposure time=4 seconds for all panels. N=5 per treatment group.
B6D2 mice were lethally irradiated on transplant day −1. On day 0 recipients were administered 3×10^6 TCD B6 BM cells and 2.5×10^4 luciferase^+ P815 murine mastocytoma cells. Some recipients also received 2×10^6 DMSO treated B6 Tcons or 4×10^6 cosalane treated B6 Tcons (15 μg/ml). Mice were then serially imaged twice weekly following the intraperitoneal injection of luciferin. […] Exposure time=4 seconds for all panels. The “mixed” cage on the far right contained one mouse each of the BM/P815 only, BM/P815 plus DMSO Tcons, and BM/P815 plus cosalane Tcons groups. N=6 per treatment group.
P815 graft-versus-leukemia model and in vivo imaging: Luciferase transfected P815 murine mastocytoma cells (H-2^d) were a kind gift from the laboratory of Dr. Jonathan Serody. P815 cells were cultured and then mixed with TCD bone marrow cells prior to transplantation. A tumor dose of 2.5×10^4 P815 cells was used for all experiments. Recipients were then serially imaged using an IVIS Kinetic Optical real-time imaging system to monitor for in vivo tumor growth twice weekly. For imaging, recipients were dosed with 3 mg of D-luciferin (Perkin Elmer) by intraperitoneal injection 10 minutes prior to the procedure. Mice were then anesthetized with isoflurane during image acquisition. Unless otherwise indicated an exposure time of 4 seconds was used for all images.
As a result, we evaluated cosalane's effects on GVL immunity using a well described P815 murine mastoma (H-2^d) leukemia model. Here, B6D2 mice were lethally irradiated and then administered 3×10^6 TCD B6 bone marrow cells containing 25,000 luciferase transfected P815 cells +/−4×10^6 B6 Tcons to drive a GVL response. One half of those mice receiving BM/Tumor plus Tcons were administered Tcons incubated with DMSO and the other one half received cosalane treated Tcons. Recipients were subsequently evaluated by serial in vivo imaging in order to monitor tumor growth in each treatment group. […]

[10] = day +14, Tcons incubated 15 μg/ml
[11] = 4×10^6 Tcons incubated 15 μg/ml
[12] = 4×10^6 cosalane treated Tcons vs 2×10^6 DMSO Tcons

Compound: CC(C)CCC[C@@H](C)[C@H]1CC[C@H]2[C@@H]3CC[C@H]4C[C@@H](CCC=C(c5cc(Cl)c(O)c(C(=O)O)c5)c5cc(Cl)c(O)c(C(=O)O)c5)CC[C@]4(C)[C@H]3CC[C@]12C [Cosalane, cosalane]
- IC50 (CCR7 [1]; ligand CCL19, read-out: Human CCR7 IC50 To CCL19): 207 nM
- IC50 (CCR7 [1]; ligand CCL21, read-out: Human CCR7 IC50 To CCL21): 2660 nM
- IC50 (Murine CCR7; ligand CCL19, read-out: Murine CCR7 IC50 To CCL19): 193 nM
- IC50 (Murine CCR7; ligand CCL21, read-out: Murine CCR7 IC50 To CCL21): 1980 nM
- aGVHD (survival and scores) with systemic dosing (B6 into B6D2 aGVHD model; 10 mg/kg intravenous, day 0, +3, +6): did not attenuate aGVHD and may have actually worsened clinical outcomes
- dosages much better tolerated by irradiated recipients (B6 into B6D2 aGVHD model; irradiated recipients, 10 mg/kg excessively high): 0.5 to 2 mg/kg
- survival times ([2]; Tcons incubated 15 μg/ml in saline): prolonged survival times
- survival ([2]; Tcons incubated 30 μg/ml): most recipients surviving to the end of the study period
- survival ([3]; human PBMCs incubated 35 μg/ml): most recipients surviving to the end of the study period
- survival times ([3]; human PBMCs incubated with cosalane): prolonged survival times
- donor Tcon numbers within the spleen, ILN, and MLN (donor Tcon accumulation; 36 hours after transplant, Tcons incubated 15 μg/ml): significant reduction in donor Tcon numbers
- donor Tcon accumulation in secondary lymphoid tissues and aGVHD target organs (donor Tcon accumulation; day +7, Tcons incubated 15 μg/ml): no differences in donor Tcon accumulation
- donor Tcon accumulation within host lymphoid sites (donor Tcon accumulation; [10]): no differences in donor Tcon accumulation
- donor Tcons within the colon and liver (donor Tcon accumulation; [10]): significant reduction in donor Tcons
- mCMV plaque number / activity, compound in infectivity media ([4]; 15 μg/ml throughout infection, MOI 0.05 and 0.005, vs DMSO): significantly reduced plaque number
- mCMV visible cytopathic effect, isolated pretreatment of 3T3 cells ([4]; pretreatment only): virtually no effect
- EBV infection, isolated pretreatment of target cells (Epstein Barr virus (EBV); 20 μg/ml pretreatment one hour, washed): reduced viral infection to a significant degree
- EBV infectivity, compound present throughout (Epstein Barr virus (EBV); 20 μg/ml, Raji cells, 48 hours): significantly limited EBV infectivity
- activity against CCL19 versus CCL21 (CCR7 [5]): approximately 10 fold
- tissue accumulation ([6]; administered intravenously): propensity to accumulate within the liver
- oral bioavailability ([6]; in vivo, po): very poor oral bioavailability
- albumin avidity (serum albumin): high albumin avidity
- viral cytopathic effect induced by herpes viruses [7]: block viral cytopathic effect
- therapeutic index [8]: > 100
- Tcon cell numbers after culture (B6 Tcons; 10 μg/ml (13 μM) to 30 μg/ml (39 μM), one hour, washed, 72 hours anti-CD3/anti-CD28/IL-2): no differences in cell numbers
- cytotoxicity in vitro (B6 Tcons; doses up to 39 μM): did not induce any apparent cytotoxicity
- TNF and IFN-γ levels in the host colon (TNF and IFN-γ): significantly reduced
- overall survival times [9, 11]: longest overall survival times
- tumor growth [9, 11]: substantial suppression of tumor growth
- mice died of aGVHD [9, 12]: 3/6
- mice succumbed to malignancy [9, 12]: none succumbed to malignancy
